# Source: ChEMBL document CHEMBL1201862, “PubChem BioAssay data set” (2004)
#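 48-hour exposure; five concentrations; linearly interpolated endpoints. The concentration for 50% growth inhibition is given as GI50.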 Active and inactive are the calls of the source. No stated cut-off is given here; in the data, active = GI50 up to about 1.1 µM and inactive = higher.
# How the values were obtained:
# Experiment in all cases: DTP human tumour cell line panel, 48 h
# M19-MEL = test system: M19-MEL
# DLD-1 = test system: DLD-1
# KM-20L2 = test system: KM-20L2
# SNB-78 = test system: SNB-78
# LXFL 529 = test system: LXFL 529
# HOP-18 = test system: HOP-18
# DMS-114 = test system: DMS-114
# DMS-273 = test system: DMS-273
# RXF 631 = test system: RXF 631
SMILES,GI50 (M19-MEL),GI50 (DLD-1),GI50 (KM-20L2),GI50 (SNB-78),GI50 (LXFL 529),GI50 (HOP-18),GI50 (DMS-114),GI50 (DMS-273),GI50 (RXF 631)
COC(=O)C(C(=O)C(=O)Nc1nc2ccc(OC)cc2s1)c1cnc2ccccc2n1 (stereo unspecified),> 100 µM (inactive),> 100 µM (inactive),> 100 µM (inactive),> 100 µM (inactive),> 100 µM (inactive),–,–,–,–
FC(F)(F)c1ccccc1C1SCc2nc3ccccc3n21 (stereo unspecified),43.3 µM (inactive),52.2 µM (inactive),–,> 100 µM (inactive),99.8 µM (inactive),> 100 µM (inactive),33 µM (inactive),38 µM (inactive),–
CCN1C(=O)C/C(=C\C(C)=O)Nc2ccccc21,> 100 µM (inactive),18.9 µM (inactive),–,> 100 µM (inactive),> 100 µM (inactive),–,> 100 µM (inactive),> 100 µM (inactive),–
Oc1ccccc1/C=N/c1ccccc1/N=C/c1ccccc1O,> 100 µM (inactive),–,> 100 µM (inactive),–,31.7 µM (inactive),–,8.89 µM (inactive),85.9 µM (inactive),–
CN(C)/N=N/c1[nH]cnc1C(N)=O [DACARBAZINE],64.4 µM (inactive),56.9 µM (inactive),53.6 µM (inactive),63.2 µM (inactive),98.2 µM (inactive),15.5 µM (inactive),71.3 µM (inactive),12.8 µM (inactive),54.1 µM (inactive)
CN(C)c1snc2c1c(=O)n(C)c(=O)n2C,> 100 µM (inactive),> 100 µM (inactive),> 100 µM (inactive),–,> 100 µM (inactive),> 100 µM (inactive),> 100 µM (inactive),> 100 µM (inactive),> 100 µM (inactive)
CN1CCN(CCSC2Cc3cc(Cl)ccc3Sc3ccccc32)CC1 (stereo unspecified),2.13 µM (inactive),3.7 µM (inactive),1.74 µM (inactive),–,2.89 µM (inactive),9.1 µM (inactive),4.9 µM (inactive),2.1 µM (inactive),–
CCOC(=O)N1c2c(ccn2C)-c2ccn(C)c2N1C(=O)OCC,26.4 µM (inactive),13.6 µM (inactive),14.6 µM (inactive),–,17.2 µM (inactive),–,> 10 µM (inactive),–,18.9 µM (inactive)
N=CCCN(CCC=N)c1ccc(/C=C2\CN(NC(=O)c3ccc(Cl)cc3)C(c3ccccc3)=N2)cc1,–,> 100 µM (inactive),> 100 µM (inactive),> 100 µM (inactive),> 100 µM (inactive),> 100 µM (inactive),> 100 µM (inactive),> 100 µM (inactive),> 100 µM (inactive)
COc1ccc(CC#N)c(OCc2ccccc2)c1,29.3 µM (inactive),28.1 µM (inactive),31.3 µM (inactive),–,20.2 µM (inactive),14.2 µM (inactive),30.8 µM (inactive),49.4 µM (inactive),–
CN(C)CCC(=O)N1C/C(=C\c2ccc(Cl)c(Cl)c2)C(=O)/C(=C/c2ccc(Cl)c(Cl)c2)C1,0.427 µM (active),0.157 µM (active),0.577 µM (active),0.476 µM (active),0.211 µM (active),1.02 µM (active),0.452 µM (active),0.15 µM (active),0.455 µM (active)
O=C(N[C@H](CO)[C@H](O)c1ccc([N+](=O)[O-])cc1)C(Cl)Cl [CHLORAMPHENICOL],> 100 µM (inactive),> 100 µM (inactive),> 100 µM (inactive),–,> 100 µM (inactive),–,> 100 µM (inactive),> 100 µM (inactive),–
NC(=O)c1cc(C2OC(CO)C(O)C2O)nn1-c1ccc([N+](=O)[O-])cc1 (stereo unspecified),–,> 100 µM (inactive),> 100 µM (inactive),36.7 µM (inactive),> 100 µM (inactive),> 100 µM (inactive),> 100 µM (inactive),> 100 µM (inactive),–
COC(=O)C1=C(O)c2cc(OC)c(OC)c(OC)c2C(c2ccc3c(c2)OCO3)[C@@H]1C(=O)OC (stereo partly specified),–,4.69 µM (inactive),2.36 µM (inactive),15.1 µM (inactive),3.08 µM (inactive),23.1 µM (inactive),2.4 µM (inactive),3.02 µM (inactive),5.82 µM (inactive)
CC(=O)C1=CCC2c3[nH]c4ccccc4c3CCN2C1 (stereo unspecified),> 100 µM (inactive),70.3 µM (inactive),21 µM (inactive),32.1 µM (inactive),66.8 µM (inactive),> 100 µM (inactive),–,34.5 µM (inactive),45.4 µM (inactive)
CCOc1ccc(NC2=NC(=O)C(CC(=O)Nc3ccc(Cl)cc3Cl)S2)cc1 (stereo unspecified),> 100 µM (inactive),> 100 µM (inactive),> 100 µM (inactive),> 100 µM (inactive),> 100 µM (inactive),–,> 100 µM (inactive),> 100 µM (inactive),> 100 µM (inactive)
O=c1c2ccccc2oc2ccccc12.Oc1cccc2cccnc12,–,1.76 µM (inactive),–,–,1.56 µM (inactive),–,1.63 µM (inactive),1.94 µM (inactive),–
C[C@@H]1O[C@@H](O[C@H]2[C@H](Oc3cc(O)c4c(=O)cc(-c5ccc(O)cc5)oc4c3)O[C@H](CO)[C@@H](O)[C@@H]2O)[C@H](O)[C@H](O)[C@H]1O [RHOIFOLIN],> 100 µM (inactive),> 100 µM (inactive),> 100 µM (inactive),> 100 µM (inactive),> 100 µM (inactive),> 100 µM (inactive),> 100 µM (inactive),> 100 µM (inactive),–
O=C(O)c1ccc(/N=N/c2cc(S(=O)(=O)O)c3cccnc3c2O)cc1,> 100 µM (inactive),63.4 µM (inactive),> 100 µM (inactive),> 100 µM (inactive),–,–,> 100 µM (inactive),> 100 µM (inactive),–
CCOC(=O)N[C@H]1CCc2cc(O)c(OC)c(OC)c2-c2ccc(SC)c(=O)cc21,0.0189 µM (active),0.0351 µM (active),0.0128 µM (active),< 0.01 µM (active),< 0.0122 µM (active),–,0.0193 µM (active),0.0149 µM (active),0.0207 µM (active)
CCCCOC(=O)NC(=O)c1cn(CCSCCOC(=O)NCCCCCCNC(=O)OCCSCCn2cc(C(=O)NC(=O)OCCCC)c(=O)[nH]c2=O)c(=O)[nH]c1=O,> 100 µM (inactive),> 100 µM (inactive),> 100 µM (inactive),90.4 µM (inactive),27 µM (inactive),31.6 µM (inactive),93.8 µM (inactive),95.5 µM (inactive),38.4 µM (inactive)
O=C(O)CN(c1ccccc1)S(=O)(=O)c1ccc(Cl)cc1,> 100 µM (inactive),> 100 µM (inactive),> 100 µM (inactive),–,> 100 µM (inactive),> 100 µM (inactive),–,> 100 µM (inactive),> 100 µM (inactive)
